According to patent publication US11203610B2, “2′3′ cyclic dinucleotides with phosphonate bond activating the sting adaptor protein” (INSTITUTE OF ORGANIC CHEMISTRY AND BIOCHEMISTRY ASCR, V.V.I., priority 2017, dated 2021):
pEC50: −log10 of the molar value.

Assays:
WT STING [1] = molecular target: T1, WT STING (Homo sapiens, UniProt Q86WV6, H232R); test: Differential Scanning Fluorimetry with WT STING; format: binding; set-up: truncated human WT STING or AQ STING (amino acid residues 140-343); 8xHis (N, cleaved yes); SUMO (N, cleaved yes); made in house; host or cells: E. coli Rosetta-gami B (DE3); conditions: thermal shift vs STING apoprotein; 150 μM CDN; 0.1 mg/ml truncated human WT STING; SYPRO Orange; read-out: DSF ΔTm (° C.) WT STING
Method: (§1) WT STING and AQ STING Proteins
(§2) Purified PCR products were cleaved with restriction enzymes BamHI (cat. #R0136S, NEB, Ipswich, USA) and NotI (cat. #R0189S, NEB, Ipswich, USA) and cloned into the pSUMO vector linearized with the identical enzymes.
(§3) The resin was poured into a chromatography column, washed with 50 ml buffer A (50 mmol·l^−1 TrisCl (pH 8.0), 800 mmol·l^−1 NaCl, 3 mmol·l^−1 β-mercaptol; 10% glycerol; 20 mmol·l^−1 imidazole) and 8-His-SUMO tagged STING proteins were eluted with 15 ml buffer A containing 300 mmol·l^−1 imidazole. […] Proteins were concentrated with Amicon® Ultra-15 10 K device (cat. #UFC901008, Merck Millipore, Billerica, USA) and flash frozen in liquid N2.
(§4) Differential Scanning Fluorimetry with WT STING and AQ STING
(§5) 20 μL solutions of the reaction mixtures were pipetted in triplicates into 96 well optical reaction plates and thermal denaturation of samples were performed on real time PCR cycler (LightCycler® 480 Instrument II—Roche, Basel, Switzerland). The first derivative of the thermal denaturation curves was performed to calculate denaturing temperatures of STING—CDN complexes and STING apoproteins. The thermal shift for each CDN was calculated by subtracting the average denaturing temperature of STING apoprotein from the average denaturing temperature of STING CDN complex.
Target sequence in this assay (Q86WV6 140-343 H232R): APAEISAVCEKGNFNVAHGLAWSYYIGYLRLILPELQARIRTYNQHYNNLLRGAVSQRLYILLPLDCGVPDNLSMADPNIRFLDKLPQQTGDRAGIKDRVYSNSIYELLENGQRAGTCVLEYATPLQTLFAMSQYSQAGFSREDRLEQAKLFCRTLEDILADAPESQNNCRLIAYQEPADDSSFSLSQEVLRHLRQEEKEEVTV

AQ STING (G230A-R293Q) = molecular target: T2, AQ STING (G230A-R293Q) (Homo sapiens, UniProt Q86WV6, G230A/H232R/R293Q); test: Differential Scanning Fluorimetry with AQ STING; format: binding; conditions: thermal shift vs STING apoprotein; 150 μM CDN; 0.1 mg/ml truncated human AQ STING; SYPRO Orange; read-out: DSF ΔTm (° C.) AQ STING
T2 construct: truncated human WT STING or AQ STING (amino acid residues 140-343); 8xHis (N, cleaved yes); SUMO (N, cleaved yes); made in house; host or cells: E. coli Rosetta-gami B (DE3)
T2 sequence (Q86WV6 140-343 G230A/H232R/R293Q): as the sequence (Q86WV6 140-343 H232R) above, with G91A, R154Q counted along it
Method: as §1, §2, §3, §4, §5

WT STING [2] = molecular target: T1, WT STING; test: Digitonin assay using 293T wtSTING-FL reporter cells; format: cell-based; conditions: 293T wtSTING-FL cells; 30 minutes in Digitonin buffer, then 5 hours; ISRE firefly luciferase reporter; 8-point dose-response curve; read-out: Digitonin assay EC50 (μmol · l^−1) WT STING
Excerpt: ISRE Reporter Plasmid (pGL64.27-4xISRE)
Two complementary oligonucleotides of the sequence […] […] […] […] […] The oligonucleotides were mixed in equal molar amounts, hybridized, and cleaved by restriction endonucleases HindIII (cat. #. R0104S, NEB, Ipswich, USA) and BglII (cat. #R0144S, NEB, Ipswich, USA). Ultimately, they were ligated into plasmid pGL4.27 (cat. #E6651, Promega, Madison, USA) linearized with the same enzymes. As result the sequence with four ISRE sites was placed upstream of the minimum promoter of firefly luciferase reporter gene.
After 5 minutes incubation at room temperature (RT), 250 μL of the mixture was added dropwise to the cells in one well. Cells were incubated 36 hours at 37° C. with 5% CO2, and then detached with 0.05% Trypsin and 0.22 g/L EDTA (both cat. #L0941, Biowest, Riverside, USA).
Transfected cells were seeded onto poly-D-lysine coated six well plates at density 50,000 cells per 1 cm^2 in DMEM medium with high glucose containing 10% heat inactivated FBS, 30 g/mL blasticidin (cat. #ant-bl-05, InvivoGen, San Diego, USA), 0.06 mg/ml Penicillin G and 0.1 mg/ml Streptomycin Sulfate (both cat. #. L0018, Biowest, Riverside, USA). The medium was replenished every 3-4 days until visible colonies of cells resistant to blasticidin were formed.
Blasticidin resistant cells stably expressing WT STING were further transfected with […] plasmid following the same procedure as described above. […] Homogeneous culture of stably double transfected cells was prepared by limiting dilution of cells in 96 well plates and wells with cells were selected that originated from a single cell.
The medium was removed next day and three fold serial dilutions of compounds in Digitonin buffer containing 50 mmol·l^−1 HEPES (cat. #H3375, Sigma Aldrich, Czech Republic) pH 7.0, 100 mmol·l^−1 KCl, 3 mmol·l^−1 MgCl2, 0.1 mmol·l^−1 DTT (cat. #D0632, Sigma Aldrich, Czech Republic), 85 mmol·l^−1 Sucrose (cat. #S7903, Sigma Aldrich, Czech Republic), 0.2% BSA (cat. #A2153, Sigma Aldrich, Czech Republic), 1 mmol·l^−1 ATP (cat. #A1852, Sigma Aldrich, Czech Republic), 0.1 mmol·l^−1 GTP (cat. #G8877, Sigma Aldrich, Czech Republic), and 10 μg/mL Digitonin A (cat. #D141, Sigma Aldrich, Czech Republic) were added to the cells. The buffer was removed after 30 minutes incubation at 37° C. with 5% CO2, the cells were washed once with 100 μl of cultivation medium, and 100 μl of medium was added to each well. The plates with cells were incubated for 5 hours at 37° C. with 5% CO2, 50 μl of the medium was removed and 30 μl of ONE-Glo™ Luciferase Assay System reagent (cat. #E6120, Promega, Madison, USA) was added to each well. Luminescence was read on Synergy H1 (Biotek, Winooski, USA).
Target sequence in this assay (Q86WV6 whole entry H232R, the tested form may be a part): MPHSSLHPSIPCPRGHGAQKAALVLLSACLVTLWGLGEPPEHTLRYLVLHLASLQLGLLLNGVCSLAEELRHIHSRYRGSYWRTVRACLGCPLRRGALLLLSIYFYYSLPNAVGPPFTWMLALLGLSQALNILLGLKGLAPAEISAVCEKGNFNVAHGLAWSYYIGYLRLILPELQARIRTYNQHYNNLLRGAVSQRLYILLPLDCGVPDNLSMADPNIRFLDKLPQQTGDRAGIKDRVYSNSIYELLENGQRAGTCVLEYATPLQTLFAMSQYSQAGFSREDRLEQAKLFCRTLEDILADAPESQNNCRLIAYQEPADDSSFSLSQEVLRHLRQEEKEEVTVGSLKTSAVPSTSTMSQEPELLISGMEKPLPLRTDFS

Row | Compound | ΔTm at 150 µM (WT STING [1]) | ΔTm at 150 µM (AQ STING (G230A-R293Q)) | pEC50 (WT STING [2])
1 | Nc1nc2c(ccn2[C@@H]2O[C@@H]3COP(=O)(O)O[C@@H]4[C@@H](OCP(=O)(O)O[C@@H]2[C@@H]3O)O[C@@H](n2cnc3c(N)ncnc32)[C@@H]4O)c(=O)[nH]1 [Compound 41, (1R,6R,8R,9R,10S,15R,17R,18R)-17-{2-amino-4-oxo-3H,4H,7H-pyrrolo[2,3-d]pyrimidin-7-yl}-8-(6-amino-9H-purin-9-yl)-3,9,12,18-tetrahydroxy-2,5,7,11,13,16-hexaoxa-3λ^5,12λ^5-diphosphatricyclo[13.2.1.0^6,10]octadecane-3,12-dione] | 1.7 °C | 9.1 °C | 5.72
2 | Cc1cn([C@@H]2O[C@@H]3COP(=O)(O)O[C@@H]4[C@@H](OCP(=O)(O)O[C@@H]2[C@@H]3O)O[C@@H](n2cnc3c(N)ncnc32)[C@@H]4O)c2nc(N)[nH]c(=O)c12 [Compound 42, (1R,6R,8R,9R,10S,15R,17R,18R)-17-{2-amino-5-methyl-4-oxo-3H,4H,7H-pyrrolo[2,3-d]pyrimidin-7-yl}-8-(6-amino-9H-purin-9-yl)-3,9,12,18-tetrahydroxy-2,5,7,11,13,16-hexaoxa-3λ^5,12λ^5-diphosphatricyclo[13.2.1.0^6,10]octadecane-3,12-dione] | 0.1 °C | 2.1 °C | 4.34
3 | Nc1nc2c(ncn2[C@@H]2O[C@@H]3OCP(=O)(O)O[C@H]4[C@@H](O)[C@H](n5cnc6c(N)ncnc65)O[C@@H]4COP(=O)(O)O[C@@H]2[C@@H]3O)c(=O)[nH]1 [Compound 43, (1R,6R,8R,9R,10S,15R,17R,18S)-17-(2-amino-6-oxo-6,9-dihydro-1H-purin-9-yl)-8-(6-amino-9H-purin-9-yl)-3,9,12,18-tetrahydroxy-2,4,7,11,14,16-hexaoxa-3λ^5,12λ^5-diphosphatricyclo[13.2.1.0^6,10]octadecane-3,12-dione] | 8 °C | 16.6 °C | 8.30
4 | Nc1nc2c(ncn2[C@@H]2O[C@@H]3OCP(=O)(O)O[C@H]4[C@H](O)[C@H](n5cnc6c(N)ncnc65)O[C@@H]4COP(=O)(O)OC2C3O)c(=O)[nH]1 (stereo partly drawn) [Compound 45, (6R,8R,9S,10S,15R,17R)-17-(2-amino-6-oxo-6,9-dihydro-1H-purin-9-yl)-8-(6-amino-9H-purin-9-yl)-3,9,12,18-tetrahydroxy-2,4,7,11,14,16-hexaoxa-3λ^5,12λ^5-diphosphatricyclo[13.2.1.0^6,10]octadecane-3,12-dione] | 18.7 °C | 25.3 °C | 8.00
5 | Nc1nc2c(ncn2[C@@H]2O[C@@H]3OCP(=O)(O)O[C@H]4[C@@H](O)[C@H](n5ccc6c(N)ncnc65)O[C@@H]4COP(=O)(O)O[C@@H]2[C@@H]3O)c(=O)[nH]1 [Compound 47, (1R,6R,8R,9R,10S,15R,17R,18S)-17-(2-amino-6-oxo-6,9-dihydro-1H-purin-9-yl)-8-{4-amino-7H-pyrrolo[2,3-d]pyrimidin-7-yl}-3,9,12,18-tetrahydroxy-2,4,7,11,14,16-hexaoxa-3λ^5,12λ^5-diphosphatricyclo[13.2.1.0^6,10]octadecane-3,12-dione] | 3.4 °C | 10.8 °C | 7.00
6 | Nc1ncc2ncn([C@@H]3O[C@@H]4COP(=O)(O)O[C@@H]5[C@H](O)[C@@H](OCP(=O)(O)O[C@H]4[C@H]3O)O[C@H]5n3cnc4c(=O)[nH]c(N)nc43)c2n1 [Compound 48, (1R,6R,8R,9R,10S,15R,17R,18S)-17-(2-amino-6-oxo-6,9-dihydro-1H-purin-9-yl)-8-(2-amino-9H-purin-9-yl)-3,9,12,18-tetrahydroxy-2,4,7,11,14,16-hexaoxa-3λ^5,12λ^5-diphosphatricyclo[13.2.1.0^6,10]octadecane-3,12-dione] | 3.9 °C | 11.6 °C | 6.77
7 | CNc1ncnc2c1ncn2[C@@H]1O[C@@H]2COP(=O)(O)O[C@@H]3[C@H](O)[C@@H](OCP(=O)(O)O[C@H]2[C@H]1O)O[C@H]3n1cnc2c(=O)[nH]c(N)nc21 [Compound 49, (1R,6R,8R,9R,10S,15R,17R,18S)-17-(2-amino-6-oxo-6,9-dihydro-1H-purin-9-yl)-3,9,12,18-tetrahydroxy-8-[6-(methylamino)-9H-purin-9-yl]-2,4,7,11,14,16-hexaoxa-3λ^5,12λ^5-diphosphatricyclo[13.2.1.0^6,10]octadecane-3,12-dione] | 3.8 °C | 9.3 °C | 6.82

Further molecules by rising pEC50 (WT STING [2]), results first:

Row | ΔTm at 150 µM (WT STING [1]) | ΔTm at 150 µM (AQ STING (G230A-R293Q)) | pEC50 (WT STING [2]) | Compound
8 | 2.6 °C | 10.3 °C | 6.48 | Nc1nc2c(ncn2[C@@H]2O[C@@H]3OCP(=O)(O)O[C@@H]4[C@@H](OCP(=O)(O)O[C@@H]2[C@@H]3O)O[C@@H](n2cnc3c(N)ncnc32)[C@@H]4O)c(=O)[nH]1 [Compound 44, (1R,6R,8R,9R,10S,15R,17R,18S)-17-(2-amino-6-oxo-6,9-dihydro-1H-purin-9-yl)-8-(6-amino-9H-purin-9-yl)-3,9,12,18-tetrahydroxy-2,5,7,11,14,16-hexaoxa-3λ^5,12λ^5-diphosphatricyclo[13.2.1.0^6,10]octadecane-3,12-dione]
9 | 10.8 °C | 18.7 °C | 7.70 | Nc1nc2c(ncn2[C@@H]2O[C@@H]3COP(=O)(O)O[C@@H]4[C@@H](OCP(=O)(O)O[C@@H]2[C@@H]3O)O[C@@H](n2cnc3c(N)ncnc32)[C@@H]4O)c(=O)[nH]1 [Compound 40, (1R,6R,8R,9R,10S,15R,17R,18R)-17-(2-amino-6-oxo-6,9-dihydro-1H-purin-9-yl)-8-(6-amino-9H-purin-9-yl)-3,9,12,18-tetrahydroxy-2,5,7,11,13,16-hexaoxa-3λ^5,12λ^5-diphosphatricyclo[13.2.1.0^6,10]octadecane-3,12-dione]
10 | 18.7 °C | 26.2 °C | 8.00 | Nc1nc2c(ncn2[C@@H]2O[C@@H]3OCP(=O)(O)O[C@H]4[C@@H](F)[C@H](n5cnc6c(N)ncnc65)O[C@@H]4COP(=O)(O)O[C@@H]2[C@@H]3O)c(=O)[nH]1 [Compound 46, (1R,6R,8R,9R,10R,15R,17R,18S)-17-(2-amino-6-oxo-6,9-dihydro-1H-purin-9-yl)-8-(6-amino-9H-purin-9-yl)-9-fluoro-3,12,18-trihydroxy-2,4,7,11,14,16-hexaoxa-3λ^5,12λ^5-diphosphatricyclo[13.2.1.0^6,10]octadecane-3,12-dione]
